# Test results: patent publication US20050267303A1, “Cyclic indole and heteroindole derivatives and methods for making and using as pharmaceuticals” (Zentaris AG, priority 2001, published 2005)
# Legend:
# HeLa/KB (CCL17) cells = experiment: XTT cytotoxicity (proliferation) test, HeLa/KB; type: cell-based, human; conditions: for anti-proliferative effect (summary in words of Table 1): 3.16 μg/mL, over cell lines HeLa/KB, SK-OV-3, MCF-7, L1210; for percentage inhibition KB/HeLa: concentration 3.16 μg/mL, 45 h incubation
# Excerpt: (§1) The substances D-70260, D-70744, D-80815, D-80816 and D-80819 (Examples C2.3, D4, F2, F3 and F4) were investigated in a proliferation test (Scudiero, et al., Cancer Res., 48: 4827-33, 1987) using established tumor cell lines and their anti-proliferative activity was investigated. The test used determines the mitochondrial dehydrogenase activity and enables the cell vitality and, indirectly, the cell count to be determined. The cell lines used are the human cell lines HeLa/KB (CCL17), SK-OV-3 (HTB77), MCF-7 (HTB22) and the murine leukemia cell line L1210 (CCL219). These are very well characterized and established cell lines, which were obtained from ATCC and cultured.
# (§2) XTT Test for Cellular Dehydrogenase Activity
# (§3) The adherent, growing, tumor cell lines HeLa/KB, SK-OV-3, MCF-7, L1210 and RKO were cultured under standard conditions in an incubator with gas inlet at 37° C., 5% carbon dioxide and 95% relative humidity. On day 1 of the experiment, the cells were detached with trypsin/EDTA and palletized by centrifuging. Subsequently, the cell pellet is re-suspended in the respective culture medium in the appropriate cell count and transferred into a 96-well microtiter plate. The plates are then cultured overnight in the incubator with gas inlet. The test substances are used as a 10 mM stock solution in DMSO and diluted on the second day of the experiment with culture medium to the appropriate concentrations. The substances in the culture medium are then added to the cells and incubated for 45 hours in the incubator with gas inlet. The cells, which were not treated with test substances, were used as controls. For the XTT-Assay, 1 mg/mL of XTT (sodium 3′-[1-(phenylaminocarbonyl)-3,4-tetrazolium]-bis(4-methoxy-6-nitro) benzenesulfonic acid) in RPMI-1640 medium was dissolved without phenol red. Additionally, a 0.383 mg/mL PMS (N-methyl dibenzopyrazine methyl sulfate) solution in phosphate buffer cell solution (PBS) was prepared. On the fourth day of the experiment, 75 μL/well of XTT-PMS mixture was pipetted onto the cell plates, which had meanwhile been incubated for 45 hours with the test substances. For this purposes, the XTT solution is mixed with the PMS solution in a ratio of 50:1 (v: v) shortly before use. Subsequently the cell plates are incubated in the incubator with gas inlet for a further three hours and the optical density (OD490nm) is determined in a photometer.
# (§4) The percentage inhibition relative to the control is calculated by means of the OD490nm, which has been determined, and the activity is plotted against the log of a concentration. The IC50 is calculated from the concentration-activity curve by means of a regression analysis using the Graphpad program.
# SK-OV-3 (HTB77) cells = experiment: XTT cytotoxicity (proliferation) test, SK-OV-3; type: cell-based; conditions: Homo sapiens, concentration 3.16 μg/mL, 45 h incubation, read-out: percentage inhibition SK-OV-3
# Excerpt: as §1, §2, §3, §4
# MCF-7 (HTB22) cells = experiment: XTT cytotoxicity (proliferation) test, MCF-7; type: cell-based; conditions: Homo sapiens, MCF7, concentration 3.16 μg/mL, 45 h incubation, read-out: percentage inhibition MCF-7
# Excerpt: as §1, §2, §3, §4
# [1] = test system: murine leukemia cell line L1210 (CCL219); experiment: XTT cytotoxicity (proliferation) test, L1210; type: cell-based; conditions: Mus musculus, concentration 3.16 μg/mL, 45 h incubation, read-out: percentage inhibition L1210
# Excerpt: as §1, §2, §3, §4
# [2] = test system: MCF-7 cells in hollow fibers; experiment: Hollow fiber model in vivo (nude mouse), MCF-7; parameters: species or system human; conditions: dose 4 × 100 mg/kg i.p., explanted day 5
# Method: (§5) In order to determine the availability and effectiveness in the animal model (nude mouse), the cell lines HeLa/KB, MCF-7 and L1210 were cultured in hollow fibers, which are implanted i.p. or s.c. (Hollingshead et al., Life Sciences 57, 131-41, 1995). The test substance D-80816 is administered four times […]. in a dose of 100 mg/kg. At the end of the therapy on day 5, the fibers are explanted and the cell vitality of the tumor cells obtained is determined by means of the XTT assay. For D-80816, there is a maximum inhibition of 100% for all the cell lines and implantation cites and a general toxicity of LD50>1000 mg/kg (i.p.).
# (§6) Determination of the Anti-Proliferative Activity in the Hollow Fiber Model in vivo
# (§7) The tumor cells lines HeLa/KB, MCF-7 and L1210 are added to polyvinylidene fluoride hollow fibers (5×10^6 cells/mL) and transplanted into the physiological compartments of the nude mouse (intraperitoneally, i.p., or subcutaneously, s.c.). A total of six hollow fibers (3 i.p. and 3 s.c.) with the respective tumor cell lines is transplanted into each experimental animal. […] The proportion of metabolism-active, vital cells is determined for each hollow fiber by means of the XTT assay (see above). From this, the anti-tumor activity of the test substance is determined as the percent inhibition relative to the control.
# [3] = General toxicity LD50 (i.p.); conditions: nude, mouse, in vivo, ip, read-out: LD 50 (general toxicity)
# Method: as §5
# [4] = test system: HeLa/KB cells in hollow fibers; experiment: Hollow fiber model in vivo (nude mouse), HeLa/KB; parameters: species or system human
# Method: as §5, §6
# The tumor cells lines HeLa/KB, MCF-7 and L1210 are added to polyvinylidene fluoride hollow fibers (5×10^6 cells/mL) and transplanted into the physiological compartments of the nude mouse (intraperitoneally, i.p., or subcutaneously, s.c.). A total of six hollow fibers (3 i.p. and 3 s.c.) with the respective tumor cell lines is transplanted into each experimental animal. One group of six animals is treated with the test substance (i.p. once daily for a total of 4 days) (ok?). The animals, which have been treated only with the solvent tylose, acted as control. The hollow fibers are explanted one day after the last application of substance. The proportion of metabolism-active, vital cells is determined for each hollow fiber by means of the XTT assay (see above). From this, the anti-tumor activity of the test substance is determined as the percent inhibition relative to the control.
# [5] = test system: RKOp27 cells (RKO colon carcinoma line with inducible p27Kip1); experiment: Cell cycle analysis in the RKOp27 model (XTT readout); type: cell-based, human
# Excerpt: The RKO is a human, colon carcinoma line, in which the cell cycle inhibitor p27^KiPI is induced to express by means of the Ecdyson expression system and leads to a cell cycle arrest specifically in GI (FIG. 2). A substance with non-specific activity inhibits the proliferation independently of whether the RKO cell in GI is arrested or not. On the other hand, cell cycle-specific substances, such as tubulin inhibitors, are cytotoxic only when the cells are not arrested and the cells pass through the cycle. […] Therefore, a defined, molecular, activity mechanism of D-80816 and its derivatives must be assumed. [drawing] [drawing]
# Cell Cycle Analysis by Means of the RKOp27 Model
# The assay is carried out in 96-well plates. The growth of the cells is arrested completely by the expression of p27^kiP1, which can be induced. […] By comparing the effectiveness of induced and not-induced cells, conclusions can be drawn concerning the mechanism of action (cell cycle specificity) of the therapeutic agents. Cells, which have […], were disseminated in an approximately 4 times higher cell count than uninduced cells, since there no longer is a division during the assay (2×10^4 cells/well induced, about 0.6×10^4 cells/well not induced). The controls are untreated cells (+/−induction). The induction is carried out with 3 μM of muristerone A. The cells are exposed on the first day (+/−muristerone A) and incubated for 24 hours at 37° C. The test substance is added on the second day (control DMSO) and the incubation is continued for a further 48 hours at 37° C., before the standard XTT assay is carried out (see above).
# [6] = test system: L1210 cells in hollow fibers; experiment: Hollow fiber model in vivo (nude mouse), L1210; parameters: species or system murine; conditions: dose 4 × 100 mg/kg i.p., explanted day 5
# Method: as §5, §6, §7
structure (smiles),measurement,setting,value
COc1ccc2c(c1)cc1c(-c3ccc(Cl)cc3)nn(-c3ccccc3)c(=O)n12,melting point,,155 to 158 °C
"COc1ccc2c(c1)cc1c(C)noc(=O)n12 [Example C2.1, 3-methyl-1,2,5-oxadiazino[4,5-α](5-methoxyindole)-6-one]",melting point,,217 to 220 °C
"CCc1noc(=O)n2c1cc1cc(OC)ccc12 [Example C2.2, 3-ethyl-1,2,5-oxadiazino[4,5-α](5-methoxyindole)-6-one]",melting point,,208 to 212 °C
"COc1ccc2c(c1)cc1c(-c3ccccc3)noc(=O)n12 [Example C2.3, 3-phenyl-1,2,5-oxadiazino[4,5α](5-methoxyindole)-6-one]",anti-proliferative effect (summary in words of Table 1),HeLa/KB (CCL17) cells,very potent anti-proliferative effect
same,percentage inhibition KB/HeLa,HeLa/KB (CCL17) cells,90.7%
same,melting point,,198 to 200 °C
same,inhibition at 3.16 µg/mL,SK-OV-3 (HTB77) cells,68.9%
same,inhibition at 3.16 µg/mL,MCF-7 (HTB22) cells,4.1%
same,inhibition at 3.16 µg/mL,[1],91.3%
"COc1ccccc1-c1noc(=O)n2c1cc1ccccc12 [Example D1, 3-(2-methoxyphenyl)-1,2,5-oxadiazino[4,5α]indole-6-one]",melting point,,160 to 162 °C
"COc1cccc(-c2noc(=O)n3c2cc2ccccc23)c1 [Example D2, 3-(3-methoxyphenyl)-1,2,5-oxadiazino[4,5α]indole-6-one]",melting point,,129 to 130 °C
"COc1cccc(-c2noc(=O)n3c2cc2cc(OC)ccc23)c1 [Example D3, 3-(3-methoxyphenyl)-1,2,5-oxadiazino[4,5α](5-methoxyindole)-6-one]",melting point,,171 to 173 °C
"COc1ccc2c(c1)cc1c(-c3ccc(Cl)cc3)noc(=O)n12 [Example D4, 3-(4-chlorophenyl)-1,2,5-oxadiazino[4,5α](5-methoxyindole)-6-one]",anti-proliferative effect (summary in words of Table 1),HeLa/KB (CCL17) cells,very potent anti-proliferative effect
same,percentage inhibition KB/HeLa,HeLa/KB (CCL17) cells,74.6%
same,melting point,,227 to 230 °C
same,inhibition at 3.16 µg/mL,SK-OV-3 (HTB77) cells,55.2%
same,inhibition at 3.16 µg/mL,MCF-7 (HTB22) cells,1.9%
same,inhibition at 3.16 µg/mL,[1],77.1%
"COc1ccc2c(c1)cc1n2C(=O)C(c2ccccc2)=C1c1ccc(Cl)cc1 [Example F1, 1-(4-chlorophenyl)-6-methoxy-2-phenyl-3a-aza-cyclopenta[a]indene-3-one]",melting point,,152 to 155 °C
"COc1cccc(C2=C(c3ccccc3)C(=O)n3c2cc2cc(OC)ccc23)c1 [Example F2, 6-methoxy-1-(3-methoxyphenyl)-2-phenyl-3a-aza-cyclopenta[a]indene-3-one]",anti-proliferative effect (summary in words of Table 1),HeLa/KB (CCL17) cells,do not show a significant effect
same,percentage inhibition KB/HeLa,HeLa/KB (CCL17) cells,1.7%
same,melting point,,111 to 113 °C
same,inhibition at 3.16 µg/mL,SK-OV-3 (HTB77) cells,0%
same,inhibition at 3.16 µg/mL,MCF-7 (HTB22) cells,8.1%
same,inhibition at 3.16 µg/mL,[1],0%
"COc1cccc(C2=C(c3cccc(OC)c3)c3cc4cc(OC)ccc4n3C2=O)c1 [Example F3, 6-methoxy-1,2-bis-(3-methoxyphenyl)-3a-aza-cyclopenta[a]indene-3-one]","Proliferation Inhibition in hollow Fibers, MCF7 (i.p.)",[2]; fibers implanted i.p.,100%
same,"Proliferation Inhibition in hollow Fibers, MCF7 (s.c.)",[2]; fibers implanted s.c.,100%
same,LD50,[3],> 1000 mg/kg
same,LD50 at 5 days,[3],> 100 mg/kg
same,anti-proliferative effect (summary in words of Table 1),HeLa/KB (CCL17) cells,very potent anti-proliferative effect
same,percentage inhibition KB/HeLa,HeLa/KB (CCL17) cells,91.7%
same,inhibition at 3.16 µg/mL,SK-OV-3 (HTB77) cells,66.1%
same,maximum inhibition in hollow fiber model,"[4]; all the cell lines (HeLa/KB, MCF-7, L1210) and implantation sites (i.p., s.c.), 4 × 100 mg/kg",100%
same,"Proliferation Inhibition in hollow Fibers, KB (i.p.)","[4]; fibers implanted i.p., dose 4 × 100 mg/kg i.p., explanted day 5",100%
same,"Proliferation Inhibition in hollow Fibers, KB (s.c.)","[4]; fibers implanted s.c., dose 4 × 100 mg/kg i.p., explanted day 5",100%
same,anti-proliferative effect in cells arrested in G1,"[5]; RKOp27 cells induced with 3 μM muristerone A (p27 expression, G1 arrest), 48 h, XTT",cannot be measured
same,anti-proliferative effect in cells not induced,"[5]; RKOp27 cells not induced, 48 h, XTT",concentration-dependent anti-proliferative effect
same,cell cycle-specific activity,[5]; comparison of induced (G1-arrested) and not induced RKOp27 cells,cell cycle-specific activity
same,"Proliferation Inhibition in hollow Fibers, L1210 (i.p.)",[6]; fibers implanted i.p.,100%
same,"Proliferation Inhibition in hollow Fibers, L1210 (s.c.)",[6]; fibers implanted s.c.,100%
same,inhibition at 3.16 µg/mL,MCF-7 (HTB22) cells,18.2%
same,inhibition at 3.16 µg/mL,[1],94.7%
"COc1ccc(C2=C(c3ccc(F)cc3)C(=O)n3c2cc2cc(OC)ccc23)cc1 [Example F4, 2-(4-florophenyl)-6-methoxy-1-(4-methoxyphenyl)-3a-aza-cyclopenta[a]indene-3-one]",anti-proliferative effect (summary in words of Table 1),HeLa/KB (CCL17) cells,do not show a significant effect
same,percentage inhibition KB/HeLa,HeLa/KB (CCL17) cells,0%
same,melting point,,157 to 160 °C
same,inhibition at 3.16 µg/mL,SK-OV-3 (HTB77) cells,6.6%
same,inhibition at 3.16 µg/mL,MCF-7 (HTB22) cells,0%
same,inhibition at 3.16 µg/mL,[1],21.8%
